Data taken from ChEMBL document CHEMBL2202954, “The effect of PLC-γ2 inhibitors on the growth of human tumour cells” (2012).

Columns and labels:
Assay type in all cases: functional
MDA-MB-468 = assay: Cytotoxicity against human MDA-MB-468 cells assessed as cellular growth at 10 uM by SRB assay
T47D = assay: Cytotoxicity against human T47D cells assessed as cellular growth at 10 uM by SRB assay
BT-549 = assay: Cytotoxicity against human BT549 cells assessed as cellular growth at 10 uM by SRB assay
Hs-578T = assay: Cytotoxicity against human Hs578T cells assessed as cellular growth at 10 uM by SRB assay
UO-31 = assay: Cytotoxicity against human UO31 cells assessed as cellular growth at 10 uM by SRB assay
RXF 393 = assay: Cytotoxicity against human RXF393 cells assessed as cellular growth at 10 uM by SRB assay
786-0 = assay: Cytotoxicity against human 786-0 cells assessed as cellular growth at 10 uM by SRB assay
SK-OV-3 = assay: Cytotoxicity against human SKOV3 cells assessed as cellular growth at 10 uM by SRB assay
OVCAR-3 = assay: Cytotoxicity against human OVCAR3 cells assessed as cellular growth at 10 uM by SRB assay
SK-MEL-5 = assay: Cytotoxicity against human SK-MEL-5 cells assessed as cellular growth at 10 uM by SRB assay
SNB-75 = assay: Cytotoxicity against human SNB75 cells assessed as cellular growth at 10 uM by SRB assay
SNB-19 = assay: Cytotoxicity against human SNB19 cells assessed as cellular growth at 10 uM by SRB assay
SF-539 = assay: Cytotoxicity against human SF539 cells assessed as cellular growth at 10 uM by SRB assay
KM12 = assay: Cytotoxicity against human KM12 cells assessed as cellular growth at 10 uM by SRB assay
HCT-15 = assay: Cytotoxicity against human HCT15 cells assessed as cellular growth at 10 uM by SRB assay
HCT-116 = assay: Cytotoxicity against human HCT116 cells assessed as cellular growth at 10 uM by SRB assay
NCI-H522 = assay: Cytotoxicity against human NCI-H522 cells assessed as cellular growth at 10 uM by SRB assay
NCI-H226 = assay: Cytotoxicity against human NCI-H226 cells assessed as cellular growth at 10 uM by SRB assay
NCI-H23 = assay: Cytotoxicity against human NCI-H23 cells assessed as cellular growth at 10 uM by SRB assay
CCRF-CEM = assay: Cytotoxicity against human CCRF-CEM cells assessed as cellular growth at 10 uM by SRB assay

SMILES	Activity (MDA-MB-468) [%]	Activity (T47D) [%]	Activity (BT-549) [%]	Activity (Hs-578T) [%]	Activity (UO-31) [%]	Activity (RXF 393) [%]	Activity (786-0) [%]	Activity (SK-OV-3) [%]	Activity (OVCAR-3) [%]	Activity (SK-MEL-5) [%]	Activity (SNB-75) [%]	Activity (SNB-19) [%]	Activity (SF-539) [%]	Activity (KM12) [%]	Activity (HCT-15) [%]	Activity (HCT-116) [%]	Activity (NCI-H522) [%]	Activity (NCI-H226) [%]	Activity (NCI-H23) [%]	Activity (CCRF-CEM) [%]
O=C(NCc1ccc(Cl)cc1)c1[nH]c2ccccc2c1Cl	106.81	96.29	104.79	100.36	80.6	104.01	106.78	98.27	97.31	95.97	94.33	108.55	118.51	95.16	103.64	103.25	103.35	89.64	95.58	93.68
Cc1ccc(NC(=O)c2sc3nc4c(cc3c2N)C(=O)CCC4)c(Br)c1	106.56	89.73	113.85	100.84	94.06	118.46	107.4	92.59	101.82	92.03	107.29	100.23	108.91	97.82	103.46	106.38	103.96	99.85	102.24	103.07
CC1(C)CCc2cc(-c3ccn(S(=O)(=O)c4ccccc4Cl)n3)ccc2O1	63.67	58.8	99.65	102.19	90.06	93.11	71.72	91.9	93.06	75.14	99.11	88.07	87.92	62.1	46.19	68.63	77.85	90.58	76.98	59.83
O=c1/c(=C/c2ccc(Cl)cc2Cl)sc2nc(-c3ccccc3)nn12	112.09	90.03	122.09	98.17	114.46	121.72	103.31	109.75	116	106.75	116.38	102.51	121.38	101.32	100.58	106.75	98.76	98.92	101.62	95.93
Clc1ccccc1Nc1nnc(-c2ccncc2)s1	110.42	89.46	90.37	94.94	90.67	107.3	80.21	104.92	109.8	97.75	105.58	99.81	107.62	107.17	112.25	101.59	98.62	100.58	102	95.96
COc1ccc(S(=O)(=O)n2ccc(-c3ccc4c(c3)CCC(C)(C)O4)n2)cc1	36.58	46.7	65.47	97.76	78.12	110.14	67.61	90.41	81.18	42.57	83.99	87.12	102.86	81.91	97.58	68.33	55.57	71.38	59.58	58.86
